Test system: Radical scavenging activity
Experiment: Antioxidant activity assessed as inhibition of DPPH radical […] at 33 uM after 5 min by spectrophotometric analysis
Type: functional

Q: How did the inhibition turn out when O=C1C[C@@H](c2ccc(O)cc2)Oc2cc(O)cc(O)c21 was run?
A: 6.3%

Q: Which inhibition does the source give for O=c1cc(-c2ccccc2)oc2ccccc12 here?
A: 1.5%

Q: How did the inhibition turn out when O=c1c(O)c(-c2ccc(O)c(O)c2)oc2cc(O)ccc12 was run?
A: 79%

Q: How did the inhibition turn out when O=c1c(O)c(-c2cc(O)c(O)c(O)c2)oc2cc(O)ccc12 was run?
A: 82.3%

Q: Which inhibition does the source give for COc1cccc2c(=O)cc(-c3ccccc3)oc12 here?
A: 0.7%

Q: With O=c1c(O)c(-c2ccc(O)cc2)oc2cc(O)cc(O)c12 as the molecule, how does the inhibition read?
A: 93.5%

Q: For COc1ccc([C@@H]2CC(=O)c3c(O)cc(O)cc3O2)cc1O, which inhibition is on record?
A: 30%

Q: With O=c1c(O)c(-c2ccccc2)oc2cc(O)cc(O)c12 as the molecule, how does the inhibition read?
A: 91.8%

Q: O=C1CC(c2ccccc2)Oc2ccccc21 (stereo not given) was tested. Which inhibition did it give?
A: 2.6%

Q: How did the inhibition turn out when O=c1cc(-c2ccc(O)cc2)oc2cc(O)cc(O)c12 was run?
A: 0.7%

Q: With O=c1c(O)c(-c2ccccc2)oc2ccccc12 as the molecule, how does the inhibition read?
A: 66%

Q: With O=c1c(O)c(-c2cc(O)c(O)c(O)c2)oc2cc(O)cc(O)c12 as the molecule, how does the inhibition read?
A: 72.8%

Q: How did the inhibition turn out when O=c1cc(-c2ccccc2)oc2cc(O)ccc12 was run?
A: 2.8%

Q: For O=C1c2c(O)cc(O)cc2O[C@H](c2ccc(O)c(O)c2)[C@H]1O, which inhibition is on record?
A: 94.8%

Q: For O=c1c(O)c(-c2ccc(O)cc2O)oc2cc(O)cc(O)c12, which inhibition is on record?
A: 96.5%

Q: With O=c1cc(-c2ccccc2)oc2cccc(O)c12 as the molecule, how does the inhibition read?
A: 0.6%

Q: Which inhibition does the source give for O=c1cc(-c2ccccc2)oc2cc(O)cc(O)c12 here?
A: 1.1%

Q: With O=C1c2ccc(O)cc2O[C@H](c2ccc(O)c(O)c2)[C@H]1O as the molecule, how does the inhibition read?
A: 91.9%

Q: Which inhibition does the source give for O=c1c(O)c(-c2ccc(O)c(O)c2)oc2cc(O)cc(O)c12 here?
A: 89.8%

Q: Which inhibition does the source give for COc1cc(-c2oc3cc(O)cc(O)c3c(=O)c2O)cc(O)c1O here?
A: 84.6%

— ChEMBL document CHEMBL3046657, “Quantum chemical QSAR study of flavones and their radical-scavenging activity” (Med Chem Res, 2007)
